Data reported in ChEMBL document CHEMBL1201862, “PubChem BioAssay data set” (2004).
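Growth conditions: 96-well plates. Treatment: test compound, 48 hours, 5 concentrations. Analysis: linear interpolation between bracketing concentrations; unreached endpoints set to highest concentration. GI50 marks 50% less growth.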 Calls of active or inactive are those of the source. Rule as the data show it: active = GI50 up to about 1.1 µM and inactive = higher.

Assays:
Test in all cases: growth of human tumour cells (NCI), 48 h
Hs-578T = system: Hs-578T
HCC 2998 = system: HCC 2998
NCI/ADR-RES = system: NCI/ADR-RES
RXF 393 = system: RXF 393
IGROV-1 = system: IGROV-1
SK-MEL-28 = system: SK-MEL-28
CCRF-CEM = system: CCRF-CEM
SF-295 = system: SF-295
A498 = system: A498
MDA-MB-435 = system: MDA-MB-435
U-251 = system: U-251
PC-3 = system: PC-3
SF-268 = system: SF-268
HCT-116 = system: HCT-116
NCI-H23 = system: NCI-H23
ACHN = system: ACHN
HOP-92 = system: HOP-92
NCI-H226 = system: NCI-H226
HCT-15 = system: HCT-15
M14 = system: M14
MCF7 = system: MCF7
Malme-3M = system: Malme-3M
T47D = system: T47D
K562 = system: K562
786-0 = system: 786-0
A549 = system: A549
RPMI-8226 = system: RPMI-8226
SK-OV-3 = system: SK-OV-3
SK-MEL-2 = system: SK-MEL-2
OVCAR-5 = system: OVCAR-5
TK-10 = system: TK-10
SNB-19 = system: SNB-19
NCI-H522 = system: NCI-H522
EKVX = system: EKVX
UACC-62 = system: UACC-62
HL-60 = system: HL-60
SNB-75 = system: SNB-75
SN12C = system: SN12C
SR = system: SR
OVCAR-3 = system: OVCAR-3
OVCAR-4 = system: OVCAR-4
LOX IMVI = system: LOX IMVI
MDA-N = system: MDA-N
UACC-257 = system: UACC-257
SK-MEL-5 = system: SK-MEL-5
SW-620 = system: SW-620
UO-31 = system: UO-31
HT-29 = system: HT-29
COLO 205 = system: COLO 205
BT-549 = system: BT-549
HOP-62 = system: HOP-62
MDA-MB-231 = system: MDA-MB-231
DU-145 = system: DU-145
CAKI-1 = system: CAKI-1
NCI-H460 = system: NCI-H460
KM12 = system: KM12
OVCAR-8 = system: OVCAR-8
SF-539 = system: SF-539
MOLT-4 = system: MOLT-4

## CCCn1cnc2c(SCC(=O)O)nc(N)nc21
Hs-578T
  GI50: > 100 µM (inactive)
HCC 2998
  GI50: > 100 µM (inactive)
NCI/ADR-RES
  GI50: > 100 µM (inactive)
RXF 393
  GI50: > 100 µM (inactive)
IGROV-1
  GI50: > 100 µM (inactive)
SK-MEL-28
  GI50: > 100 µM (inactive)
CCRF-CEM
  GI50: > 100 µM (inactive)
SF-295
  GI50: > 100 µM (inactive)
A498
  GI50: > 100 µM (inactive)
MDA-MB-435
  GI50: > 100 µM (inactive)
U-251
  GI50: > 100 µM (inactive)
PC-3
  GI50: > 100 µM (inactive)
SF-268
  GI50: > 100 µM (inactive)
HCT-116
  GI50: > 100 µM (inactive)
NCI-H23
  GI50: > 100 µM (inactive)
ACHN
  GI50: > 100 µM (inactive)
HOP-92
  GI50: > 100 µM (inactive)
NCI-H226
  GI50: > 100 µM (inactive)
HCT-15
  GI50: > 100 µM
M14
  GI50: > 100 µM (inactive)
MCF7
  GI50: > 100 µM (inactive)
Malme-3M
  GI50: > 100 µM (inactive)
T47D
  GI50: > 100 µM (inactive)
K562
  GI50: > 100 µM (inactive)
786-0
  GI50: > 100 µM (inactive)
A549
  GI50: > 100 µM (inactive)
RPMI-8226
  GI50: > 100 µM (inactive)
SK-OV-3
  GI50: > 100 µM (inactive)
SK-MEL-2
  GI50: > 100 µM (inactive)
OVCAR-5
  GI50: > 100 µM (inactive)
TK-10
  GI50: > 100 µM (inactive)
SNB-19
  GI50: > 100 µM (inactive)
NCI-H522
  GI50: > 100 µM (inactive)
EKVX
  GI50: > 100 µM (inactive)
UACC-62
  GI50: > 100 µM (inactive)
HL-60
  GI50: > 100 µM (inactive)
SNB-75
  GI50: > 100 µM (inactive)
SN12C
  GI50: > 100 µM (inactive)
SR
  GI50: > 100 µM (inactive)
OVCAR-3
  GI50: > 100 µM (inactive)
OVCAR-4
  GI50: > 100 µM (inactive)
LOX IMVI
  GI50: > 100 µM (inactive)
MDA-N
  GI50: > 100 µM (inactive)
UACC-257
  GI50: > 100 µM (inactive)
SK-MEL-5
  GI50: > 100 µM (inactive)
SW-620
  GI50: > 100 µM (inactive)
UO-31
  GI50: > 100 µM (inactive)
HT-29
  GI50: > 100 µM (inactive)
COLO 205
  GI50: > 100 µM (inactive)
BT-549
  GI50: > 100 µM (inactive)
HOP-62
  GI50: > 100 µM (inactive)
MDA-MB-231
  GI50: > 100 µM (inactive)
DU-145
  GI50: > 100 µM (inactive)
CAKI-1
  GI50: > 100 µM (inactive)
NCI-H460
  GI50: > 100 µM (inactive)
KM12
  GI50: > 100 µM (inactive)
OVCAR-8
  GI50: > 100 µM (inactive)

## CN1CCN(c2nc3c(c(=O)n(C)c(=O)n3C)n2C)CC1
Hs-578T
  GI50: > 100 µM (inactive)
HCC 2998
  GI50: > 100 µM (inactive)
NCI/ADR-RES
  GI50: > 100 µM (inactive)
RXF 393
  GI50: > 100 µM (inactive)
IGROV-1
  GI50: > 100 µM (inactive)
SK-MEL-28
  GI50: > 100 µM (inactive)
CCRF-CEM
  GI50: > 100 µM (inactive)
SF-295
  GI50: > 100 µM (inactive)
A498
  GI50: > 100 µM (inactive)
MDA-MB-435
  GI50: > 100 µM (inactive)
U-251
  GI50: > 100 µM (inactive)
PC-3
  GI50: > 100 µM (inactive)
SF-268
  GI50: > 100 µM (inactive)
HCT-116
  GI50: > 100 µM (inactive)
NCI-H23
  GI50: > 100 µM (inactive)
ACHN
  GI50: > 100 µM (inactive)
HOP-92
  GI50: > 100 µM (inactive)
NCI-H226
  GI50: > 100 µM (inactive)
HCT-15
  GI50: > 100 µM
M14
  GI50: > 100 µM (inactive)
MCF7
  GI50: > 100 µM (inactive)
Malme-3M
  GI50: > 100 µM (inactive)
T47D
  GI50: > 100 µM (inactive)
K562
  GI50: > 100 µM (inactive)
786-0
  GI50: > 100 µM (inactive)
A549
  GI50: > 100 µM (inactive)
RPMI-8226
  GI50: > 100 µM (inactive)
SK-OV-3
  GI50: > 100 µM (inactive)
SK-MEL-2
  GI50: > 100 µM (inactive)
OVCAR-5
  GI50: > 100 µM (inactive)
TK-10
  GI50: > 100 µM (inactive)
SNB-19
  GI50: > 100 µM (inactive)
NCI-H522
  GI50: > 100 µM (inactive)
EKVX
  GI50: > 100 µM (inactive)
UACC-62
  GI50: > 100 µM (inactive)
HL-60
  GI50: > 100 µM (inactive)
SNB-75
  GI50: > 100 µM (inactive)
SN12C
  GI50: > 100 µM (inactive)
SR
  GI50: > 100 µM (inactive)
OVCAR-3
  GI50: > 100 µM (inactive)
OVCAR-4
  GI50: > 100 µM (inactive)
LOX IMVI
  GI50: > 100 µM (inactive)
MDA-N
  GI50: > 100 µM (inactive)
UACC-257
  GI50: > 100 µM (inactive)
SK-MEL-5
  GI50: > 100 µM (inactive)
SW-620
  GI50: > 100 µM (inactive)
UO-31
  GI50: > 100 µM (inactive)
HT-29
  GI50: > 100 µM (inactive)
COLO 205
  GI50: > 100 µM (inactive)
BT-549
  GI50: > 100 µM (inactive)
HOP-62
  GI50: > 100 µM (inactive)
MDA-MB-231
  GI50: > 100 µM (inactive)
DU-145
  GI50: > 100 µM (inactive)
CAKI-1
  GI50: > 100 µM (inactive)
NCI-H460
  GI50: > 100 µM (inactive)
KM12
  GI50: > 100 µM (inactive)
OVCAR-8
  GI50: > 100 µM (inactive)

## CC(C)=CCC/C(C)=C/CC/C(C)=C/CC(CO)N(C)CC/C=C(\C)CCC=C(C)C (configuration not stated)
Hs-578T
  GI50: 5.31 µM (inactive)
HCC 2998
  GI50: 3.04 µM (inactive)
NCI/ADR-RES
  GI50: 4.62 µM (inactive)
RXF 393
  GI50: 4.82 µM (inactive)
IGROV-1
  GI50: 3.1 µM (inactive)
SK-MEL-28
  GI50: 5.87 µM (inactive)
CCRF-CEM
  GI50: 3.03 µM (inactive)
SF-295
  GI50: 7.1 µM (inactive)
A498
  GI50: 14.9 µM (inactive)
MDA-MB-435
  GI50: 3.93 µM (inactive)
U-251
  GI50: 3.56 µM (inactive)
PC-3
  GI50: 7.96 µM (inactive)
SF-268
  GI50: 13.3 µM (inactive)
HCT-116
  GI50: 2.15 µM (inactive)
SF-539
  GI50: 3.06 µM (inactive)
NCI-H23
  GI50: 7.96 µM (inactive)
ACHN
  GI50: 11.6 µM (inactive)
HOP-92
  GI50: 2.7 µM (inactive)
NCI-H226
  GI50: 13.7 µM (inactive)
HCT-15
  GI50: 3.78 µM
M14
  GI50: 1.79 µM (inactive)
MCF7
  GI50: 2.11 µM (inactive)
Malme-3M
  GI50: 2.99 µM (inactive)
T47D
  GI50: 3.64 µM (inactive)
K562
  GI50: 1.6 µM (inactive)
786-0
  GI50: 1.91 µM (inactive)
A549
  GI50: 4.93 µM (inactive)
RPMI-8226
  GI50: 3.09 µM (inactive)
SK-OV-3
  GI50: 14.9 µM (inactive)
SK-MEL-2
  GI50: 14.3 µM (inactive)
OVCAR-5
  GI50: 7.13 µM (inactive)
TK-10
  GI50: 9.53 µM (inactive)
SNB-19
  GI50: 8.91 µM (inactive)
NCI-H522
  GI50: 2.09 µM (inactive)
EKVX
  GI50: 10.4 µM (inactive)
UACC-62
  GI50: 16.1 µM (inactive)
SNB-75
  GI50: 12 µM (inactive)
SN12C
  GI50: 4.54 µM (inactive)
SR
  GI50: 2.17 µM (inactive)
OVCAR-3
  GI50: 14.2 µM (inactive)
OVCAR-4
  GI50: 8.97 µM (inactive)
LOX IMVI
  GI50: 2.92 µM (inactive)
MDA-N
  GI50: 3.43 µM (inactive)
UACC-257
  GI50: 5.2 µM (inactive)
SK-MEL-5
  GI50: 8.39 µM (inactive)
SW-620
  GI50: 3.62 µM (inactive)
UO-31
  GI50: 4.65 µM (inactive)
HT-29
  GI50: 3.5 µM (inactive)
COLO 205
  GI50: 2.42 µM (inactive)
BT-549
  GI50: 14.1 µM (inactive)
HOP-62
  GI50: 4.32 µM (inactive)
MDA-MB-231
  GI50: 9.86 µM (inactive)
DU-145
  GI50: 11.5 µM (inactive)
CAKI-1
  GI50: 6.64 µM (inactive)
NCI-H460
  GI50: 3.48 µM (inactive)
KM12
  GI50: 3.94 µM (inactive)
MOLT-4
  GI50: 2.39 µM (inactive)
OVCAR-8
  GI50: 7 µM (inactive)
